In article PMC6704710, “Preclinical evaluation of 3D185, a novel potent inhibitor of FGFR1/2/3 and CSF-1R, in FGFR-dependent and macrophage-dominant cancer models” (Journal of Experimental & Clinical Cancer Research : CR, 2019):

Experiments:
Experiment in all cases: Eurofins kinase panel
Format in all cases: biochemical
[1] = biological target: T1, Axl(h) (Homo sapiens, UniProt P30530); settings: read-out: Inhibition rate (%)
T1 construct: purchased Eurofins (KinaseProfiler)
T1 sequence (P30530 26-894): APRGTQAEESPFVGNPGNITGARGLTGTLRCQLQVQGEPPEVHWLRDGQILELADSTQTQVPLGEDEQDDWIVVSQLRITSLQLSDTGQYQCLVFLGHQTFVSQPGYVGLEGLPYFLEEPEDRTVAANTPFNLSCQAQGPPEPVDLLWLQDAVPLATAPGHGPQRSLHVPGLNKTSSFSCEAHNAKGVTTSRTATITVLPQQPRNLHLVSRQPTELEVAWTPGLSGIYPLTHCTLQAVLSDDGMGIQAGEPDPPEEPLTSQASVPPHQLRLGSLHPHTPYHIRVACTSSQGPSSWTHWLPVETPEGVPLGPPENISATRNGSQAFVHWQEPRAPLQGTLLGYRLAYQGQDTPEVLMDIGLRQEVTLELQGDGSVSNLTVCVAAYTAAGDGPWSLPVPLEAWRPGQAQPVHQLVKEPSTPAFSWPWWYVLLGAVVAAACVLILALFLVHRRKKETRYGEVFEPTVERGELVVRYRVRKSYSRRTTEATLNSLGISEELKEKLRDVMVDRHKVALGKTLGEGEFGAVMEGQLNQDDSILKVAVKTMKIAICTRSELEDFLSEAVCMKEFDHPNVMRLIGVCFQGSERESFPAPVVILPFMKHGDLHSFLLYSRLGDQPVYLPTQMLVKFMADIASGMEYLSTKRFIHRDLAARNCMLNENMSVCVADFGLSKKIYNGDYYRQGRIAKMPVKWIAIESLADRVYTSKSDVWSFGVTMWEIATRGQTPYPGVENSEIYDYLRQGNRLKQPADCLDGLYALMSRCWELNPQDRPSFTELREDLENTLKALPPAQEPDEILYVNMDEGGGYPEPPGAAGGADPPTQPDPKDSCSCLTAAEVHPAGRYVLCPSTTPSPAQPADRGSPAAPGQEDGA

[2] = biological target: T2, CHK1(h) (Homo sapiens, UniProt O14757); settings: read-out: Inhibition rate (%)
T2 construct: purchased Eurofins (KinaseProfiler)
T2 sequence (O14757 1-476): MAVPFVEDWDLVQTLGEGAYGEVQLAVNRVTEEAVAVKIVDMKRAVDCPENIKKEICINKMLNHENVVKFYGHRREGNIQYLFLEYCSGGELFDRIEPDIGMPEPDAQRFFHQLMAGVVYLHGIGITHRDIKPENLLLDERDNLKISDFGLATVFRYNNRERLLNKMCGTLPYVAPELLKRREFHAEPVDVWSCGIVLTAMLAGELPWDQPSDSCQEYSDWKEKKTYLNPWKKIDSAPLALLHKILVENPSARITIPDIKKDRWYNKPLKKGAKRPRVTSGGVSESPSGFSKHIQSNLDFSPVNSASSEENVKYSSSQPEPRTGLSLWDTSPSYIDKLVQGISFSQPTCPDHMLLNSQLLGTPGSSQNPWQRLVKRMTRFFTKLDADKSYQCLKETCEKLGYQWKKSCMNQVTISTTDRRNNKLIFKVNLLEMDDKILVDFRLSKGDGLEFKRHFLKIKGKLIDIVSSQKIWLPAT

[3] = biological target: T3, STK33(h) (Homo sapiens, UniProt Q9BYT3); settings: read-out: Inhibition rate (%)
T3 construct: purchased Eurofins (KinaseProfiler)

[4] = biological target: T4, PKCγ(h) (Homo sapiens, UniProt P05129); settings: read-out: Inhibition rate (%)
T4 construct: purchased Eurofins (KinaseProfiler)

[5] = biological target: T5, Met(Y1248H)(h) (Homo sapiens, UniProt P08581, Y1230H); settings: read-out: Inhibition rate (%)
T5 construct: purchased Eurofins (KinaseProfiler)

[6] = biological target: T6, IKKα(h) (Homo sapiens, UniProt O15111); settings: read-out: Inhibition rate (%)
T6 construct: purchased Eurofins (KinaseProfiler)
T6 sequence (O15111 1-745): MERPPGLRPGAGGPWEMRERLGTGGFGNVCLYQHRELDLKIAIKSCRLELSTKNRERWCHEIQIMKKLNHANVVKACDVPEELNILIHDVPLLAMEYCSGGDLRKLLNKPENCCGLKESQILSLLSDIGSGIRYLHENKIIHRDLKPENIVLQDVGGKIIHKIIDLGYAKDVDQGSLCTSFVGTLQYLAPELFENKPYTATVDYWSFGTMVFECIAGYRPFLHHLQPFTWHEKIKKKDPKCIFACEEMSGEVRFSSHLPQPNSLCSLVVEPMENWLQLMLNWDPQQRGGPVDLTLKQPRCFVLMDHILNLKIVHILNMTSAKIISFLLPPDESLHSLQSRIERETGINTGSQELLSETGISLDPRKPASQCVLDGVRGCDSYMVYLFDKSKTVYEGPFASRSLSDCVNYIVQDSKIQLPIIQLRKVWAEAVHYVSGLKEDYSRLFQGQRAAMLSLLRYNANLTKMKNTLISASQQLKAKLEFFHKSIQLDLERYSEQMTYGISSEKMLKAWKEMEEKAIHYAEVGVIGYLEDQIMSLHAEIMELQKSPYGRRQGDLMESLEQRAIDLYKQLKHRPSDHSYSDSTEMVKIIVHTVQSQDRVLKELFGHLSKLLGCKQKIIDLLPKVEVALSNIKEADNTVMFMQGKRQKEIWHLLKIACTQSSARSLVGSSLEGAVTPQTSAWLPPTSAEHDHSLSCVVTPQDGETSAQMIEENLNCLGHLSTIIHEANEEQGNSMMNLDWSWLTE

[7] = biological target: T7, MAPK2(h) (Homo sapiens, UniProt P28482); settings: read-out: Inhibition rate (%)
T7 construct: purchased Eurofins (KinaseProfiler)

[8] = tested on: ROCK-II(r)
[9] = biological target: T8, PRK1(h) (Homo sapiens, UniProt Q16512); settings: read-out: Inhibition rate (%)
T8 construct: purchased Eurofins (KinaseProfiler)
T8 sequence (Q16512 whole entry): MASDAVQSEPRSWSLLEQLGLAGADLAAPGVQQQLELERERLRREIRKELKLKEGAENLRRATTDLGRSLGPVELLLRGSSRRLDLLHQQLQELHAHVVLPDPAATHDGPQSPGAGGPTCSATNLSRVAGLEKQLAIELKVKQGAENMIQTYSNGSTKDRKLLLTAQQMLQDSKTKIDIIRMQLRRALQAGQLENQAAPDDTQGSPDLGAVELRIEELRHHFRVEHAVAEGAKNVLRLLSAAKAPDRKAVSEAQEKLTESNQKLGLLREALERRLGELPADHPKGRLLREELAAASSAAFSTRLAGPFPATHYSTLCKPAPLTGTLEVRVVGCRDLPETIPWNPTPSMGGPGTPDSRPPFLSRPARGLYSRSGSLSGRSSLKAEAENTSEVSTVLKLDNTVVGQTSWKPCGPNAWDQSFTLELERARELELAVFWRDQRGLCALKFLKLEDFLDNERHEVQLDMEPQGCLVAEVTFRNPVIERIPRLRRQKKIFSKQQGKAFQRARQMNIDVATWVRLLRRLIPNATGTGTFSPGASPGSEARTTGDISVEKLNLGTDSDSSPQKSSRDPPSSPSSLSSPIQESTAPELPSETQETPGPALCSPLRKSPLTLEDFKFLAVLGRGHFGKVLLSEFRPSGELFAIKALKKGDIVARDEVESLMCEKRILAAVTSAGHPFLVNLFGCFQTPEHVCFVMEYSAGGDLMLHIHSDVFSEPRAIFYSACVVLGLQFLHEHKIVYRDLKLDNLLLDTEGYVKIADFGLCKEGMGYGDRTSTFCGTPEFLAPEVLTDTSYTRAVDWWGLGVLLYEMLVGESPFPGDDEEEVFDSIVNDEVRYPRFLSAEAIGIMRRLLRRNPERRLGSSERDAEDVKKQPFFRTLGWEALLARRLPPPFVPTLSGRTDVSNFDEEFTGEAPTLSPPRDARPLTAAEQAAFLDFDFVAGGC

T7 sequence (P28482 whole entry): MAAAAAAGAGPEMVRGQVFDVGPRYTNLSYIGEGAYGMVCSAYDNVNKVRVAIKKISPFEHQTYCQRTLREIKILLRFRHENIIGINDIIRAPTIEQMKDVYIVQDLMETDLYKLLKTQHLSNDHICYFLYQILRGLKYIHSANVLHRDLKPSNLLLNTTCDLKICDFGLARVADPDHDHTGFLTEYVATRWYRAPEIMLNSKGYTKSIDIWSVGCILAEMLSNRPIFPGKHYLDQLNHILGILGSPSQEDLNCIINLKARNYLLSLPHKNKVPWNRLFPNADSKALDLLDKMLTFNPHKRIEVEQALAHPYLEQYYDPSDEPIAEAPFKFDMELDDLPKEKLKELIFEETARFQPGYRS
T3 sequence (Q9BYT3 whole entry): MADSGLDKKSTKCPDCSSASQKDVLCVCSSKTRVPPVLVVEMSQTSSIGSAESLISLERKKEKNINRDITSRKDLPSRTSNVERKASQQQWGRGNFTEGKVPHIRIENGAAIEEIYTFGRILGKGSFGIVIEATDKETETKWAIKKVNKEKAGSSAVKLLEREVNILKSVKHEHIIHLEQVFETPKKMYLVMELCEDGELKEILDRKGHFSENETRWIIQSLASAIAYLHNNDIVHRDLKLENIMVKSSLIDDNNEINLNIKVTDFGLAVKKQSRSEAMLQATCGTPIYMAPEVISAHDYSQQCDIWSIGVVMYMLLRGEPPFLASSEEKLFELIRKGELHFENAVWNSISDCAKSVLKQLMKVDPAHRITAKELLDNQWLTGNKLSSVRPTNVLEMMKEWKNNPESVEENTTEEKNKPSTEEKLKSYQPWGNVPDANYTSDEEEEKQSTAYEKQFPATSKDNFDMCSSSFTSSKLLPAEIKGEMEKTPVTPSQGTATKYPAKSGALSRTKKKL
T5 sequence (P08581 956-1390 Y1230H limits assumed): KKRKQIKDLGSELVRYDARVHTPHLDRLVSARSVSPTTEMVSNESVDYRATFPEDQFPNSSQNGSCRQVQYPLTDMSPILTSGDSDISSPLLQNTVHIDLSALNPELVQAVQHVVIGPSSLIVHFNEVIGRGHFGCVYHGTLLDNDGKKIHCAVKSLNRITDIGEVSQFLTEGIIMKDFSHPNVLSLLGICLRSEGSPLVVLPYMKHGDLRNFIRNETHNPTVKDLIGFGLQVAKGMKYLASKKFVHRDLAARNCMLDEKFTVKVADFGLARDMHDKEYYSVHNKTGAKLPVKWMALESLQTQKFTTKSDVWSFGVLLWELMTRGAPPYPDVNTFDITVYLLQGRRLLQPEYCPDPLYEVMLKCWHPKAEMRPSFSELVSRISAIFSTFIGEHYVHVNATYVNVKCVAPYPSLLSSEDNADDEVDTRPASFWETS

## COc1cc(OC)c(Cl)c(-c2ccc3c(NC(=O)c4ccc(N5CCNC(C)(C)C5)cc4)n[nH]c3n2)c1Cl [3D185]
[1]; 10 nM
  inhibition at 0.01 µM: -7%
[1]; 100 nM
  inhibition at 0.1 µM: -9%
[1]; 1000 nM
  inhibition at 1 µM: 26%
[2]; 10 nM
  inhibition at 0.01 µM: 3%
[2]; 100 nM
  inhibition at 0.1 µM: -6%
[2]; 1000 nM
  inhibition at 1 µM: -3%
[3]; 10 nM
  inhibition at 0.01 µM: 3%
[3]; 100 nM
  inhibition at 0.1 µM: 9%
[3]; 1000 nM
  inhibition at 1 µM: 13%
[4]; 10 nM
  inhibition at 0.01 µM: -4%
[4]; 100 nM
  inhibition at 0.1 µM: -8%
[4]; 1000 nM
  inhibition at 1 µM: -1%
[5]; 10 nM
  inhibition at 0.01 µM: -16%
[5]; 100 nM
  inhibition at 0.1 µM: 8%
[5]; 1000 nM
  inhibition at 1 µM: 46%
[6]; 10 nM
  inhibition at 0.01 µM: -3%
[6]; 100 nM
  inhibition at 0.1 µM: -3%
[6]; 1000 nM
  inhibition at 1 µM: -7%
[7]; 10 nM
  inhibition at 0.01 µM: -5%
[7]; 100 nM
  inhibition at 0.1 µM: -3%
[7]; 1000 nM
  inhibition at 1 µM: 3%
[8]; 10 nM
  Inhibition rate (%): -3%
[8]; 100 nM
  Inhibition rate (%): 0%
[8]; 1000 nM
  Inhibition rate (%): -1%
[9]; 10 nM
  inhibition at 0.01 µM: 2%
[9]; 100 nM
  inhibition at 0.1 µM: 1%
[9]; 1000 nM
  inhibition at 1 µM: 2%
